Experiment: Aqueous release, USP apparatus II (paddles), water with 6% Cremophor EL (sink conditions)
Format: physicochemical
Details: 37° C., 100 rpm to 60 minutes then 200 rpm for 15 minutes, 600 mg dose, FIG. 2
Experimental: Dissolution profiles can be determined using USP apparatus II (paddles) (VK 7010®, Varian Inc.), with a bath temperature of 37° C. and a paddle speed of 100 rpm for 60 minutes, followed by a paddle speed of 200 rpm for an additional 15 minutes.
The aqueous release of the spray dried powder was measured using USP apparatus II (paddles) at 37° C. in water with 6% Cremophor EL. The paddle speed was 100 rpm for the first 60 minutes, and then the paddle speed was increased to 200 rpm for an additional 15 minutes. A dose equivalent to 600 mg oxcarbazepine was filled into hard gelatin capsules (Qualicaps, Shionogi). This media creates sink conditions for the tested dose. • 5.
The release profile of this spray dried product was measured using the same dissolution method of Example 1, that is, in media that creates sink conditions for the tested dose. • 5.

oxcarbazepine release after the first 15 minutes: remained essentially constant
SMILES: NC(=O)N1c2ccccc2CC(=O)c2ccccc21 [crystalline oxcarbazepine, 10,11-dihydro-10-oxo-5H-dibenz[b,f]azepine-5-carboxamide]

Reference: patent US20080181961A1, “AMORPHOUS OXCARBAZEPINE AND THE PRODUCTION THEREOF” (ISP INVESTMENTS, INC., priority 2007, published 2008)
